This data set is described as follows: Aqueous solubility (nephelometric method). It counts as physicochemical. Conditions: at 100 μM. The protocol:
Solutions of the test compound were prepared from DMSO stock solution at the specified test concentrations. The solutions were mixed thoroughly and aliquoted into a 384-well plate, incubated for 1 hour at 37° C., and the degree of light scattering in each solution was measured at 635 nm using a laser-based microplate nephelometer. The mean nephelometric reading at each concentration was calculated and compared to that of the blank solution and a positive control (a solution of latex at a minimum concentration sufficient to give a mean reading higher than that of blank solution, as determined by a calibration curve). The compound was judged to be soluble at a specific concentration if the mean reading was less than the reading of the positive control. In cases where the mean reading was greater than or equal to the positive control, the solution was reported as having a precipitate and a percent precipitation value was calculated using the following formula: % precipitation=(mean test compound−mean blank)/(mean positive control−mean blank)×100

As for `CCOC(=O)CSc1nc(NNC(=O)OC)nc(Nc2ccc(NC(=O)OC)c(O)c2)n1` [TZ4_121, [4-(3-Hydroxy-4-methoxycarbonylamino-phenylamino)-6-(N′methoxycarbonyl-hydrazino)-1,3,5-triazin-2-ylsulfanyl]-acetic acid ethyl ester], the solubility result is “Good”.

The record behind these values is patent publication US10472334B2, “Small molecules for inhibiting male fertility” (The University of North Carolina at Chapel Hill, priority 2014, dated 2019).
